Among the data in ChEMBL document CHEMBL5729293, “Inhibitors of KEAP1-Nrf2 protein-protein interaction” (2022) are Kd values, retold here.

Bounds are passed on as bounds.

Broadly, the Kd is the concentration at which binding is half-saturated.

The assay is described as follows: Fluorescence Based Assay: The details of the KEAP1 KELCH ThermoFluor® Assay Construct are as follows: Kelch domain of human KEAP 1 (321-624 aa) was used in the assay. The protein was expressed in E. coli with 6His tag that was cleaved prior to receipt for use.ThermoFluor® experiments were carried out using instruments owned by Janssen Research and Discovery, L.L.C. through its acquisition of 3-Dimensional Pharmaceuticals, Inc. 1,8-ANS (Invitrogen) was used as a fluorescent dye. Protein (KEAP Kelch) and compound solutions were dispensed into black 384-well polypropylene PCR microplates (Abgene) and overlayed with silicone oil (1 μL, Fluka, type DC 200) to prevent evaporation.Reference wells contained KEAP Kelch without compounds, and the assay conditions were as follows: 1.1 μM (0.037mg/mL) KEAP Kelch, 80 μM 1,8-ANS, 25 mM PIPES, pH 7.0, 100 mM NaCl, 0.002% Tween-20.
For `Cc1cnc([C@@H](c2ccn3c(C(F)F)nnc3c2C)C(C)(C)C(=O)O)cc1CN1CC2(CCOCC2)Oc2nc(OCCN3CCCCC3)c(C)cc2S1(=O)=O`, the Kd was < 1 nM.
On to `Cc1ccc([C@@H](CC(=O)O)c2ccn3c(C(F)(F)F)nnc3c2C)nc1CN1CC2(CC2)Oc2ncccc2S1(=O)=O`, for which the Kd is < 1 nM.
Turning to `Cc1cnc2c(c1)S(=O)(=O)N(Cc1cc([C@H](c3ccc4c(nnn4C4CC4)c3C)C(C)(C)C(=O)O)ccc1C)CC1(CNC1)O2`, the Kd was < 1 nM.
For the compound `Cc1ccc(C(CC(=O)O)c2cc(OC3CC3)c3c(c2)nnn3C)cc1CN1C[C@H]2CCCCN2c2ncccc2S1(=O)=O` (stereo partly specified), the Kd was < 1 nM.
With `Cc1ccc(C(CC(=O)O)c2ccn3c(C)nnc3c2)cc1CN1CC(C)(C)Oc2ncccc2S1(=O)=O` (stereo unspecified), the Kd is < 1 nM.
With `CCn1nnc2c(C)c([C@H](CC(=O)O)c3ccc(C)c(CN4CC5(COC5)Oc5ccccc5S4(=O)=O)n3)ccc21`, the Kd is < 1 nM.
`Cc1ccc([C@H](CC(=O)O)c2ccn3c(C(F)F)nnc3c2C)cc1CN1CC2(CC2)Oc2ncccc2S1(=O)=O`: the Kd was < 1 nM.
Consider `Cc1ccc([C@@H](c2ccn3c(C(F)F)nnc3c2C)C(C)(C)C(=O)O)cc1CN1CC2(CC2)Oc2nc(OCCN3CCCCC3)c(C)cc2S1(=O)=O`, for which the Kd was < 1 nM.
In the case of `COCCCNc1ccc2c(n1)OC1(CC1)CN(Cc1cc([C@H](CC(=O)O)c3ccn4c(C(F)(F)F)nnc4c3C)ccc1C)S2(=O)=O`, the Kd was < 1 nM.
Consider `COC1CCN(CCOc2nc3c(cc2C)S(=O)(=O)N(Cc2cc([C@@H](c4ccn5c(C(F)(F)F)nnc5c4C)C(C)(C)C(=O)O)ccc2C)CC2(CC2)O3)CC1`, for which the Kd is < 1 nM.
Regarding `Cc1ccc([C@@H](CC(=O)O)c2cc(OC(F)F)c3c(c2)nnn3C)cc1CN1C[C@H]2CCCN2c2ncccc2S1(=O)=O`, the Kd was < 1 nM.
In the case of `Cc1ccc(C(CC(=O)O)c2ccc3c(nnn3C3CC3)c2C)cc1CN1CC2(COC2)Oc2ccccc2S1(=O)=O` (stereo unspecified), the Kd was < 1 nM.
Take `Cc1cnc([C@@H](c2ccn3c(C(F)(F)F)nnc3c2C)C(C)(C)C(=O)O)cc1CN1CC2(CCOCC2)Oc2ncccc2S1(=O)=O`: the Kd was < 1 nM.
For the compound `Cc1ccc([C@@H](c2ccn3c(C(F)F)nnc3c2C)C(C)(C)C(=O)O)nc1CN1CC2(CCOCC2)Oc2nc(OCCN3CCCC3)c(C)cc2S1(=O)=O`, the Kd was < 1 nM.
The same measure for `Cc1ccc(C(CC(=O)O)c2ccn3c(C(F)(F)F)nnc3c2C)cc1CN1C[C@@H]2CCCCN2c2ncccc2S1(=O)=O` (stereo partly specified): < 1 nM; for `Cc1ccc([C@@H](c2ccn3c(C(F)(F)F)nnc3c2C)C(C)(C)C(=O)O)cc1CN1CC2(CC2)Oc2nc(OCCN3CCCCC3)ccc2S1(=O)=O`: < 1 nM.
The same measure for `Cc1cnc2c(c1)S(=O)(=O)N(Cc1cc([C@@H](c3ccc4c(nnn4C4CC4)c3C)C(C)(C)C(=O)O)ccc1C)CC1(CCNCC1)O2`: < 1 nM; for `Cc1ccc(C(CC(=O)O)c2ccn3c(C4CC4)nnc3c2C)cc1CN1C[C@H]2CCCN2c2ncccc2S1(=O)=O` (stereo partly specified): < 1 nM; for `Cc1ccc([C@@H](c2ccn3c(C(F)(F)F)nnc3c2C)C(C)(C)C(=O)O)cc1CN1CC2(CC2)Oc2nc(OCCN3CCC(F)CC3)c(C)cc2S1(=O)=O`: < 1 nM.
Consider `CCn1nnc2c(C)c(C(CC(=O)O)c3ccc(C)c(CN4CC5(COC5)Oc5ncccc5S4(=O)=O)n3)ccc21` (stereo unspecified), for which the Kd is < 1 nM.
With `Cc1cnc2c(c1)S(=O)(=O)N(Cc1cc(C(c3ccc4c(nnn4C4CC4)c3C)C(C)(C)C(=O)O)cnc1C)CC1(CC1)O2` (stereo unspecified), the Kd was < 1 nM.
For `Cc1ccc([C@H](c2ccn3c(C(F)(F)F)nnc3c2C)C(C)(C)C(=O)O)cc1CN1CC2(CCOCC2)Oc2nc(OCCC3CCNCC3)c(C)cc2S1(=O)=O`, the Kd is < 1 nM.
The same measure for `Cc1ccc([C@H](c2ccn3c(C(F)(F)F)nnc3c2C)C(C)(C)C(=O)O)cc1CN1CC(C)(C)Oc2ncccc2S1(=O)=O`: < 1 nM; for `Cc1ccc([C@@H](CC(=O)O)c2ccn3c(C(F)(F)F)nnc3c2C)nc1CN1CC2(CC2)Oc2ncc(F)cc2S1(=O)=O`: < 1 nM; for `Cc1ccc(C(CC(=O)O)c2ccn3c(C(F)(F)F)nnc3c2C)nc1CN1CC2(COC2)Oc2ccccc2S1(=O)=O` (stereo unspecified): < 1 nM.
`Cc1ccc(C(c2cc(C)n3c(C(F)(F)F)nnc3c2C)C(C)C(=O)O)cc1CN1C[C@@H]2CCCCN2c2ncccc2S1(=O)=O` (stereo partly specified): the Kd is < 1 nM.
As to `Cc1c(C(CC(=O)O)c2ccc(Cl)c(CN3CC4CCCCN4c4ncccc4S3(=O)=O)c2)ccn2c(C(F)(F)F)nnc12` (stereo unspecified), the Kd is < 1 nM.
Regarding `Cc1ccc([C@@H](CC(=O)O)c2ccn3c(C(F)(F)F)nnc3c2C)nc1CN1C[C@@H]2CCCCN2c2ncccc2S1(=O)=O`, the Kd is < 1 nM.
Take `Cc1ccc([C@@H](c2ccn3c(C(F)(F)F)nnc3c2C)C(C)(C)C(=O)O)cc1CN1CC2(CNC2)Oc2ncccc2S1(=O)=O`: the Kd was < 1 nM.
For the compound `Cc1cnc2c(c1)S(=O)(=O)N(Cc1cc([C@@H](CC(=O)O)c3ccn4c(C(F)F)nnc4c3C)ccc1C)CC1(CC1)O2`, the Kd was < 1 nM.
Consider `Cc1cnc2c(c1)S(=O)(=O)N(Cc1cc(C(CC(=O)O)c3ccn4c(C(F)F)nnc4c3C)ccc1C)C[C@@H]1CCCCN21` (stereo partly specified), for which the dissociation constant (Kd) is < 1 nM.
Take `CCn1nnc2c(C)c([C@H](CC(=O)O)c3ccc(C)c(CN4C[C@H]5CCCCN5c5ncccc5S4(=O)=O)n3)ccc21`: the Kd was < 1 nM.
With `Cc1ccc([C@@H](CC(=O)O)c2ccn3c(C(F)F)nnc3c2C)cc1CN1CC2(CC2)Oc2ncc(Cl)cc2S1(=O)=O`, the Kd is < 1 nM.
For the compound `Cc1ccc([C@H](c2ccn3c(C(F)(F)F)nnc3c2C)C(C)(C)C(=O)O)cc1CN1CC2(CCOCC2)Oc2nc(NC(C)CN3CCCCC3)c(C)cc2S1(=O)=O` (stereo partly specified), the Kd is < 1 nM.
`Cc1cnc2c(c1)S(=O)(=O)N(Cc1cc([C@@H](c3ccn4c(C(F)(F)F)nnc4c3C)C(C)(C)C(=O)O)ncc1C)CC1(CC1)O2`: the Kd is < 1 nM.
Regarding `CCc1c([C@@H](CC(=O)O)c2ccc(C)c(CN3C[C@H]4CCCCN4c4ncc(C)cc4S3(=O)=O)c2)ccn2c(C(F)(F)F)nnc12`, the Kd was < 1 nM.
With `Cc1cnc2c(c1)S(=O)(=O)N(Cc1cc(C(CC(=O)O)c3ccn4c(C(F)F)nnc4c3C)ccc1C)CC1(CC1)O2` (stereo unspecified), the Kd is < 1 nM.
`Cc1ccc([C@@H](CC(=O)O)c2ccn3c(C(F)(F)F)nnc3c2C)nc1CN1CC2(COC2)Oc2ncccc2S1(=O)=O`: the Kd is < 1 nM.
On to `Cc1ccc([C@H](c2ccn3c(C(F)F)nnc3c2C)C(C)(C)C(=O)O)nc1CN1CC2(CC2)Oc2nc(OCCN3CCCC3)c(C)cc2S1(=O)=O`, for which the Kd is < 1 nM.
Turning to `Cc1cnc2c(c1)S(=O)(=O)N(Cc1cc([C@H](c3ccn4c(C(F)(F)F)nnc4c3)C(C)(C)C(=O)O)ccc1C)CC1(CC1)O2`, the Kd was < 1 nM.
`Cc1ccc([C@@H](CC(=O)O)c2ccn3c(C)nnc3c2)cc1CN1C[C@H]2CCCN2c2ccccc2S1(=O)=O`: the Kd is < 1 nM.
Take `CCn1nnc2c(C)c(C(CC(=O)O)c3ccc(C)c(CN4C[C@H]5CCCCN5c5ncccc5S4(=O)=O)n3)ccc21` (stereo partly specified): the Kd was < 1 nM.
The same measure for `Cc1ccc([C@@H](c2ccn3c(C(F)(F)F)nnc3c2C)C(C)(C)C(=O)O)cc1CN1CC2(COC2)Oc2ncccc2S1(=O)=O`: < 1 nM.
`Cc1ccc(C(CC(=O)O)c2ccn3c(C(F)F)nnc3c2C)cc1CN1CC2(CC2)Oc2ncc(F)cc2S1(=O)=O` (stereo unspecified): the Kd is < 1 nM.
Regarding `Cc1ccc([C@@H](CC(=O)O)c2ccc3c(nnn3C3CC3)c2C)cc1CN1C[C@]2(C)CCCN2c2ncccc2S1(=O)=O`, the Kd is < 1 nM.
Turning to `Cc1ccc([C@H](CC(=O)O)c2ccc3c(nnn3C3CC3)c2C)cc1CN1CC2(COC2)Oc2ccccc2S1(=O)=O`, the Kd is < 1 nM.
The same measure for `Cc1ccc([C@@H](c2ccn3c(C(F)(F)F)nnc3c2C)C(C)(C)C(=O)O)cc1CN1CC2(CC2)Oc2nc(OCCN3CCCC3)c(C)cc2S1(=O)=O`: < 1 nM; for `Cc1ncc([C@@H](c2ccc3c(nnn3C3CC3)c2C)C(C)(C)C(=O)O)cc1CN1CC2(COC2)Oc2ncccc2S1(=O)=O`: < 1 nM.
The same measure for `Cc1ccc(C(CC(=O)O)c2ccn3c(C(F)(F)F)nnc3c2C)nc1CN1C[C@@H]2CCCCN2c2ncccc2S1(=O)=O` (stereo partly specified): < 1 nM; for `Cc1ccc([C@@H](CC(=O)O)c2ccn3c(C(F)(F)F)nnc3c2C)cc1CN1C[C@@H]2CCCCN2c2ncccc2S1(=O)=O`: < 1 nM; for `Cc1ccc([C@@H](CC(=O)O)c2ccc3c(nnn3CC3CC3)c2C)cc1CN1C[C@@H]2CCCCN2c2ncccc2S1(=O)=O`: < 1 nM.
With `Cc1ccc([C@@H](CC(=O)O)c2ccn3c(C(F)F)nnc3c2C)cc1CN1CC2(CCOCC2)Oc2ncc(F)cc2S1(=O)=O`, the Kd was < 1 nM.
Consider `Cc1ccc([C@H](c2ccn3c(C(F)(F)F)nnc3c2C)C(C)(C)C(=O)O)cc1CN1CC2(CCOCC2)Oc2nc(NCCN3CCNCC3)c(C)cc2S1(=O)=O`, for which the Kd is < 1 nM.
As for `Cc1ccc([C@@H](c2ccn3c(C4CC4)nnc3c2C)C(C)(C)C(=O)O)cc1CN1CC2(CCOCC2)Oc2ncccc2S1(=O)=O`, the Kd was < 1 nM.
Take `Cc1ccc([C@@H](CC(=O)O)c2ccn3c(C(F)(F)F)nnc3c2C)cc1CN1C[C@H]2CCCN2c2ncccc2S1(=O)=O`: the Kd was < 1 nM.
In the case of `Cc1ccc([C@H](c2ccn3c(C(F)(F)F)nnc3c2C)C(C)(C)C(=O)O)cc1CN1CC2(CCOCC2)Oc2nc(N[C@H](C)CN3CCOCC3)c(C)cc2S1(=O)=O`, the Kd is < 1 nM.
Regarding `Cc1ccc(C(CC(=O)O)c2ccc3c(nnn3CC3CC3)c2C)cc1CN1C[C@H]2CCCCN2c2ncccc2S1(=O)=O` (stereo partly specified), the Kd is < 1 nM.
Regarding `Cc1ccc([C@@H](c2ccn3c(C(F)(F)F)nnc3c2C)C(C)(C)C(=O)O)cc1CN1CC2(CC2)Oc2nc(OCCN3CCCCC3)c(C)cc2S1(=O)=O`, the Kd is < 1 nM.
With `Cc1ccc([C@H](CC(=O)O)c2ccn3c(C(F)(F)F)nnc3c2C)cc1CN1CC(C)(C)Oc2ncccc2S1(=O)=O`, the Kd was < 1 nM.
Take `CCn1nnc2c(C)c([C@H](CC(=O)O)c3ccc(C)c(CN4CC5(CCOCC5)Oc5ccc(F)cc5S4(=O)=O)n3)ccc21`: the Kd was < 1 nM.
The same measure for `Cc1ccc([C@H](CC(=O)O)c2ccn3c(C(F)(F)F)nnc3c2C)nc1CN1CC2(CC2)Oc2ncc(F)cc2S1(=O)=O`: < 1 nM.
